Assay results as given in patent US6737383B1, “Herbicidal oxadiazolidines” (priority 1999, dated 2004).

Test system: barnyardgrass
Test: Test A barnyardgrass
Type: in vivo, Echinochloa crus-galli
Details: 0 to 10 scale where 0 is no effect and 10 is complete control
How it was run: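 Injury scored visually after about eleven greenhouse days against untreated plants, 0 = no effect, 10 = complete control. Compounds, formulated in surfactant-containing non-phytotoxic solvent, were applied as preemergence soil drench to sandy loam plantings and as postemergence runoff spray at the 1–2 leaf stage.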

| Compound | Plant response rating, Barnyardgrass (Postemergence, Rate 1000 g/ha) | Plant response rating, Barnyardgrass (Pre-emergence, Rate 2000 g/ha) |
| --- | --- | --- |
| CC(C)N(C(=O)n1oc(=O)n(C)c1=O)c1ccc(Cl)cc1 [Compound 137] | 8 | 10 |
| CC(C)N(C(=O)n1oc(=O)n(N(C)c2ccccc2)c1=O)c1ccc(F)cc1 [Compound 177] | 0 | 9 |
| CC(C)N(C(=O)n1oc(=O)n(C2CCCC(C(F)(F)F)C2)c1=O)c1ccc(F)cc1 (stereo not shown) [Compound 184] | 2 | 9 |
| Cc1ccccc1-n1c(=O)on(C(=O)N(c2cc(OC(C)C)c(Cl)cc2Cl)C(C)C)c1=O [Compound 42] | 0 | 0 |
| CCN(C(=O)n1oc(=O)n(N(C)c2ccccc2)c1=O)C1CCCCC1 [Compound 183] | 0 | 9 |
